ChEMBL document CHEMBL1201862, “PubChem BioAssay data set” (2004)
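Dose response: 5 concentrations. Exposure: 48 h. Format: 96-well plates. Endpoint: linear interpolation; highest concentration if not reached. Here, GI50 denotes the concentration required for 50% inhibition of growth.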 Activity calls are given as the source filed them. Rule as the data show it: active = GI50 up to about 1.1 µM and inactive = higher.

Tests used:
Test in all cases: growth of human tumour cells (NCI), 48 h
[1] = test system: HT-29
[2] = test system: Hs-578T
[3] = test system: MOLT-4
[4] = test system: HCT-15
[5] = test system: NCI-H226
[6] = test system: RPMI-8226
[7] = test system: ACHN
[8] = test system: SNB-19
[9] = test system: SNB-75
[10] = test system: NCI-H522
[11] = test system: UACC-257
[12] = test system: KM12
[13] = test system: MCF7
[14] = test system: SF-268
[15] = test system: Malme-3M
[16] = test system: SK-MEL-28
[17] = test system: EKVX
[18] = test system: A549
[19] = test system: SK-OV-3
[20] = test system: SF-295

SMILES | GI50 [1] | GI50 [2] | GI50 [3] | GI50 [4] [µM] | GI50 [5] | GI50 [6] | GI50 [7] | GI50 [8] | GI50 [9] | GI50 [10] | GI50 [11] | GI50 [12] | GI50 [13] | GI50 [14] | GI50 [15] | GI50 [16] | GI50 [17] | GI50 [18] | GI50 [19] | GI50 [20]
Cc1ncc(CO)c(/C=N/CCCCCC/N=C/c2c(CO)cnc(C)c2[O-])c1[O-].[Mg+2] | > 100 µM (inactive) | > 100 µM (inactive) | > 100 µM (inactive) | > 100 | > 100 µM (inactive) | > 100 µM (inactive) | > 100 µM (inactive) | > 100 µM (inactive) | 99.5 µM (inactive) | > 100 µM (inactive) | > 100 µM (inactive) | > 100 µM (inactive) | > 60.1 µM (inactive) | > 100 µM (inactive) | > 100 µM (inactive) | > 100 µM (inactive) | > 100 µM (inactive) | > 100 µM (inactive) | > 100 µM (inactive) | > 100 µM (inactive)
Nc1ccn(C2CCC(CO)O2)c(=O)n1 (configuration not stated) | > 100 µM (inactive) | > 1000 µM (inactive) | 63.8 µM (inactive) | > 100 | > 93.5 µM (inactive) | > 100 µM (inactive) | 785 µM (inactive) | > 100 µM (inactive) | > 100 µM (inactive) | 656 µM (inactive) | > 100 µM (inactive) | > 100 µM (inactive) | 99.8 µM (inactive) | > 62.8 µM (inactive) | > 100 µM (inactive) | > 100 µM (inactive) | > 100 µM (inactive) | > 100 µM (inactive) | > 100 µM (inactive) | > 100 µM (inactive)
O=C1NC(=O)c2ccccc2/C1=C/c1ccc2c(c1)OCO2 | 20.8 µM (inactive) | 10.4 µM (inactive) | 11.5 µM (inactive) | 15.6 | 27.9 µM (inactive) | 19.3 µM (inactive) | 15.8 µM (inactive) | 32 µM (inactive) | 28.1 µM (inactive) | 31.3 µM (inactive) | 21.4 µM (inactive) | 17 µM (inactive) | 20 µM (inactive) | 21.8 µM (inactive) | 31.3 µM (inactive) |  | 51.1 µM (inactive) | 34 µM (inactive) | 27.3 µM (inactive) | 24.5 µM (inactive)
COC(=O)[C@H](Cc1ccccc1)NC(=O)NCCN(CCNC(=O)N[C@@H](Cc1ccccc1)C(=O)OC)C(=O)N[C@@H](Cc1ccccc1)C(=O)OC |  | 23.8 µM (inactive) | 20.2 µM (inactive) | > 50.1 | 18.2 µM (inactive) | 25.3 µM (inactive) | 24.5 µM (inactive) | 24.7 µM (inactive) | 20.7 µM (inactive) | 15.7 µM (inactive) | 20.7 µM (inactive) | 20.9 µM (inactive) | 26 µM (inactive) | 17 µM (inactive) | 22 µM (inactive) | 19.4 µM (inactive) | 30.6 µM (inactive) | 29 µM (inactive) | 31.9 µM (inactive) | 18.9 µM (inactive)
CN(C)CC1CCC/C(=C\c2ccc(OC(=O)/C=C/c3ccc(Cl)cc3)cc2)C1=O (configuration not stated) | 2.07 µM (inactive) | 4.92 µM (inactive) | 1.05 µM (active) | 2.01 | 11 µM (inactive) | 0.294 µM (active) | 2.43 µM (inactive) | 8.43 µM (inactive) | 8.93 µM (inactive) | 0.916 µM (active) | 11.5 µM (inactive) | 1.47 µM (inactive) | 1.08 µM (active) | 4.09 µM (inactive) | 9.06 µM (inactive) | 6.14 µM (inactive) | 7.14 µM (inactive) | 8.49 µM (inactive) | 21.3 µM (inactive) | 7.6 µM (inactive)
CC1=NN(C(=O)CC(=O)Nc2ccc(C)cc2)C(=O)C1/N=N/c1ccc(C(=O)O)cc1 (configuration not stated) | > 100 µM (inactive) | 85.7 µM (inactive) |  | > 100 |  | > 100 µM (inactive) | > 100 µM (inactive) | > 100 µM (inactive) | > 100 µM (inactive) | > 100 µM (inactive) | > 100 µM (inactive) | > 100 µM (inactive) | > 100 µM (inactive) | > 100 µM (inactive) | > 100 µM (inactive) | > 100 µM (inactive) | > 100 µM (inactive) | > 100 µM (inactive) |  | > 100 µM (inactive)
COc1ccc(-n2cnc3c(NC(CCSC)C(=O)O)ncnc32)cc1 (configuration not stated) | > 100 µM (inactive) | > 100 µM (inactive) | > 100 µM (inactive) | > 100 | > 100 µM (inactive) | > 100 µM (inactive) | > 100 µM (inactive) | > 100 µM (inactive) | > 100 µM (inactive) | > 100 µM (inactive) | > 100 µM (inactive) | > 100 µM (inactive) | > 100 µM (inactive) | > 100 µM (inactive) |  | > 100 µM (inactive) | > 100 µM (inactive) | > 100 µM (inactive) | > 100 µM (inactive) | > 100 µM (inactive)
CCOC(=O)C(=O)NNc1nc2c(s1)C(=O)c1ccccc1C2=O | 19.1 µM (inactive) | 2.87 µM (inactive) | 3.33 µM (inactive) | 2.54 | 15.7 µM (inactive) | 2.65 µM (inactive) | 2.29 µM (inactive) | 15.1 µM (inactive) | 3.65 µM (inactive) | 4.49 µM (inactive) | 1.71 µM (inactive) | 9.27 µM (inactive) | 15.6 µM (inactive) | 4.12 µM (inactive) | 1.95 µM (inactive) | 3.06 µM (inactive) | 7.46 µM (inactive) | 6.07 µM (inactive) | 20 µM (inactive) | 5.01 µM (inactive)
Cc1ccc(-c2n[nH]c(=O)n2NC(=O)c2ccccc2C(=O)O)cc1 | > 100 µM (inactive) | > 100 µM (inactive) | > 100 µM (inactive) | > 100 | > 100 µM (inactive) | > 100 µM (inactive) | > 100 µM (inactive) | > 100 µM (inactive) | > 100 µM (inactive) | > 100 µM (inactive) | > 100 µM (inactive) | > 100 µM (inactive) | > 100 µM (inactive) | > 100 µM (inactive) | > 100 µM (inactive) | > 100 µM (inactive) |  | > 100 µM (inactive) |  | > 100 µM (inactive)
N[C@H]1c2c(Br)sc(Br)c2C(=O)[C@H]1O | 11.2 µM (inactive) | 31 µM (inactive) | 5.14 µM (inactive) | 6.78 | 22.2 µM (inactive) | 27.4 µM (inactive) | 24.7 µM (inactive) | 21.8 µM (inactive) | 29.2 µM (inactive) | 3.18 µM (inactive) | 14.2 µM (inactive) | 34.9 µM (inactive) | 13.3 µM (inactive) | 24.9 µM (inactive) | 11.6 µM (inactive) | 10.3 µM (inactive) | 12.9 µM (inactive) | 24.9 µM (inactive) | 12.3 µM (inactive) | 21.7 µM (inactive)
OC[C@H]1CC(c2nn[nH]n2)[C@H](O)[C@@H]1O (some centres not stated) | > 100 µM (inactive) | > 100 µM (inactive) | > 100 µM (inactive) | > 100 | > 100 µM (inactive) | > 100 µM (inactive) | > 100 µM (inactive) | > 100 µM (inactive) | > 100 µM (inactive) | > 100 µM (inactive) |  | > 100 µM (inactive) | > 100 µM (inactive) | > 100 µM (inactive) | > 100 µM (inactive) | > 100 µM (inactive) |  | > 100 µM (inactive) | > 100 µM (inactive) | > 100 µM (inactive)
COC(=NCCC1=CCCCC1)OC | 18.2 µM (inactive) | > 100 µM (inactive) | 52.2 µM (inactive) | 82 |  | 32.1 µM (inactive) | > 100 µM (inactive) | > 100 µM (inactive) | 71.6 µM (inactive) | 32.4 µM (inactive) | 39.3 µM (inactive) | 78.9 µM (inactive) | 47.6 µM (inactive) | > 100 µM (inactive) | 31.2 µM (inactive) | 44.7 µM (inactive) | 69 µM (inactive) | 69.3 µM (inactive) | > 100 µM (inactive) | > 100 µM (inactive)
CN(C)c1ccc(/C=C2\N=C(N/N=C/c3ccc(N(C)C)cc3)NC2=O)cc1 | 42.7 µM (inactive) | > 100 µM (inactive) | 92 µM (inactive) | 30.8 | > 100 µM (inactive) | 76.6 µM (inactive) | > 100 µM (inactive) | > 100 µM (inactive) | > 100 µM (inactive) | 47.9 µM (inactive) | > 100 µM (inactive) | 61.1 µM (inactive) | 71.9 µM (inactive) | 80.4 µM (inactive) | > 100 µM (inactive) | > 100 µM (inactive) | > 100 µM (inactive) | 92.5 µM (inactive) | > 100 µM (inactive) | 58.2 µM (inactive)
O=C1C2CC=CCC2C(=O)N1n1c(Cc2ccc(Cl)cc2)n[nH]c1=O (configuration not stated) | > 100 µM (inactive) | > 100 µM (inactive) | > 100 µM (inactive) | > 100 | > 100 µM (inactive) | > 100 µM (inactive) | > 100 µM (inactive) |  | > 100 µM (inactive) | > 100 µM (inactive) | > 100 µM (inactive) | > 100 µM (inactive) | > 100 µM (inactive) | > 100 µM (inactive) | > 100 µM (inactive) | > 100 µM (inactive) | > 100 µM (inactive) | > 100 µM (inactive) | > 100 µM (inactive) | > 100 µM (inactive)
Cc1ccc2c(O)cc(-c3sc4ccccc4c3C)nc2n1 | 25.9 µM (inactive) | 19.9 µM (inactive) | 26.1 µM (inactive) | 17.7 | 20.4 µM (inactive) | 14.5 µM (inactive) |  | 29.9 µM (inactive) | 17.3 µM (inactive) | 16.4 µM (inactive) | 32.3 µM (inactive) | 15.7 µM (inactive) | 41.7 µM (inactive) | 21.6 µM (inactive) | 16.7 µM (inactive) | 19.1 µM (inactive) | 25.5 µM (inactive) | 22.7 µM (inactive) | 21.7 µM (inactive) | 17.1 µM (inactive)
